Results reported in patent US8124565B2, “Method of protecting a plant propagation material, a plant, and/or plant organs” (priority 2006, dated 2012).
Read-outs that look alike come from different tables or passages of the source.

Tests used:
Gäumannomyces graminis = experiment: Fungal growth assay, Gäumannomyces graminis (microtiter plate, PDB); format: cell-based; conditions: 72 hrs
Pyrenophora graminea [1] = experiment: Fungal growth assay, Pyrenophora graminea (microtiter plate, PDB); format: cell-based; conditions: 72 hrs
Fusarium graminearum [2] = format: cell-based; conditions: 48 hrs
Rhizoctonia solani = experiment: Rhizoctonia solani/cotton (damping off) seed treatment test; format: in vivo; conditions: seed treatment 200 g/100 kg, cotton seeds in inoculated soil
Protocol: A-2. Rhizoctonia solani/Cotton (Damping Off on Cotton)
A defined amount of mycelium of R. solani is blended with soil and trays are filled with the inoculated soil. The formulated test compounds are applied to cotton seeds. The treated cotton seeds are then sown into the inoculated soil. Until germination the test is stored at 20° C. and a rel. humidity of 90% in the dark. After germination the test is transferred to 25° C. and a rel. humidity of 70% with a photoperiod of 14 h. The evaluation is done by counting the emerged cotton plants and the number of emerged and diseased plants.

Pyrenophora graminea [3] = experiment: Pyrenophora graminea/barley (stripe disease) seed treatment test; format: in vivo; conditions: seed treatment 20 g/100 kg, infected winter barley seeds
Protocol: A-1. Pyrenophora graminea/Barley (Stripe Disease on Barley)
After application of the formulated seed treatment onto P. graminea-infected seeds of winter barley the seeds are sown in trays filled with field soil. The trays are kept in a growth room for 3 weeks at 4° C. After this period the trial is transferred to a greenhouse where a temperature of 12° C. and a 14 hr light period is provided. The following assessments are made: emergence count, final stand count, number of infected plants.

Fusarium graminearum [4] = format: in vivo; conditions: seed treatment 20 g/100 kg, corn seeds (cv. Magister) in inoculated soil

Row | Structure (SMILES) | Observed control in % (% Cobs) (Gäumannomyces graminis; 0.5 ppm) | Observed control in % (% Cobs) (Pyrenophora graminea [1]; 0.25 ppm) | Observed control in % (% Cobs) (Fusarium graminearum [2]; 0.03125 ppm) | Observed control in % (% Cobs) (Fusarium graminearum [2]; 0.0625 ppm) | Observed control in % (% Cobs) (Fusarium graminearum [2]; 0.125 ppm) | Observed control in % (% Cobs) (Fusarium graminearum [2]; 0.25 ppm) | Observed control in % (% Cobs) (Gäumannomyces graminis; 0.25 ppm) | Observed control in % (% Cobs) (Pyrenophora graminea [1]; 0.5 ppm) | activity (Rhizoctonia solani) | activity (Pyrenophora graminea [3]) | activity (Fusarium graminearum [4])
1 | Cn1cc(C(=O)Nc2ccccc2C2CC2C2CC2)c(C(F)F)n1 (stereo not drawn) [Compound of formula A, reference compound] | 74.8% | 0% | 1.6% | 2.4% | 8.4% | 7.8% | – | – | – | – | –
2 | Cc1ccc(C2CC(C)(c3cccnc3)N(C)O2)cc1 (stereo not drawn) [Compound of formula I] | – | – | 0% | 3.5% | 4.4% | 12.5% | 26.0% | 62.3% | 70% | 100% | 100%
